Among the data in patent US20260258064A1 (SIRONAX LTD., priority 2023, published 2026) are IC50 values, retold here.

In this test the target is T1, SARM1 (50-724) (Homo sapiens, UniProt Q6SZW1).
T1 construct: Purified SARM1 (50-724) with a final concentration of 2 nM was pre-incubated with a test compound
T1 sequence (Q6SZW1 50-724): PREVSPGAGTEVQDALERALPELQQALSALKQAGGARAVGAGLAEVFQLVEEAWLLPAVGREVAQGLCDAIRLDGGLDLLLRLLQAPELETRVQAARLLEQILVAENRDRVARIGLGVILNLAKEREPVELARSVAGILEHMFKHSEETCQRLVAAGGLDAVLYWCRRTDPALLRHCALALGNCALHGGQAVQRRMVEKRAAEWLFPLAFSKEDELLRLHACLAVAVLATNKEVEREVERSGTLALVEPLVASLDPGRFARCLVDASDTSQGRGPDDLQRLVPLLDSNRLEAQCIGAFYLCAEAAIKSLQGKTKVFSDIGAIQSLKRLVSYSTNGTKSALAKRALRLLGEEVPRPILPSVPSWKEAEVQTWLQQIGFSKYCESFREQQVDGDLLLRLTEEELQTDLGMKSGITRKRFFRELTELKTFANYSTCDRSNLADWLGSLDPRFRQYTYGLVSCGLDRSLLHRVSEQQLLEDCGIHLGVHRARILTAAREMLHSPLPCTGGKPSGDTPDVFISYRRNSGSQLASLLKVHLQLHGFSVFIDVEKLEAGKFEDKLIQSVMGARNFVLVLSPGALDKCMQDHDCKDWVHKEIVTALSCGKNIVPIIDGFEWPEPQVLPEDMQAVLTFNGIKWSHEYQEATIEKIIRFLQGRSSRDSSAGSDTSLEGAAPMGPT
In words: SARM1 (50-724) enzymatic assay (LC-MS/MS). The class given is biochemical. The note with it: Purified SARM1 (50-724) 2 nM, NMN as activator, NAD+ as substrate, 1 h at room temperature, read-out: IC50 (SARM1 inhibitory activity). Summed up: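 Human SARM1 (50-724), 2 nM, pre-incubated 15 min at room temperature with compound in Dulbecco's PBS. Reaction started with 200 µM NMN (activator) plus […] NAD^+ substrate, run 1 h at room temperature, quenched with 70% acetonitrile. Turnover quantified by LC-MS/MS; IC50 reported.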

SMILES strings stand for the structures. A value given as a limit tells only on which side of the number the result lay.

As to `Cn1cc(-c2cccc(Cl)c2)c(-c2nc3cc(C(F)(F)F)ccc3[nH]2)cc1=O` [Example 76], the half-inhibitory concentration (IC50) was greater than 1000 nM.

For the compound `FC(F)(F)c1ccc2[nH]c(-c3cncn3-c3cccc(Cl)c3Cl)nc2c1` [Example 45, 2-(1-(2,3-dichlorophenyl)-1H-imidazol-5-yl)-5-(trifluoromethyl)-1H-benzo[d]imidazole], the IC50 was no more than 100 nM.

Consider `CN(CCCC(N)=O)c1cc(F)c2[nH]c(-c3nncn3-c3cnccc3C(F)(F)F)nc2c1` [Compound 455, 4-((4-fluoro-2-(4-(4-(trifluoromethyl)pyridin-3-yl)-4H-1,2,4-triazol-3-yl)-1H-benzo[d]imidazol-6-yl)(methyl)amino)butanamide], for which the IC50 is no more than 100 nM.

Take `Clc1cccc(-n2cnnc2-c2nc3cc(C4COC4)ccc3[nH]2)c1Cl` [Example 55, 2-(4-(2,3-dichlorophenyl)-4H-1,2,4-triazol-3-yl)-5-(oxetan-3-yl)-1H-benzo[d]imidazole]: the half-maximal inhibitory concentration (IC50) lay within 100 to 500 nM.

On to `Clc1cc(-c2ccc3[nH]c(-c4nncn4-c4cccc(Cl)c4Cl)nc3c2)[nH]n1` [Example 82, 5-(3-chloro-1H-pyrazol-5-yl)-2-(4-(2,3-dichlorophenyl)-4H-1,2,4-triazol-3-yl)-1H-benzo[d]imidazole], for which the half-inhibitory concentration (IC50) is no more than 100 nM.

With `COCCOc1c(Cl)ccc2[nH]c(-c3nncn3-c3cnccc3C(F)(F)F)nc12` [Compound 371, 5-chloro-4-(2-methoxyethoxy)-2-(4-(4-(trifluoromethyl)pyridin-3-yl)-4H-1,2,4-triazol-3-yl)-1H-benzo[d]imidazole], the IC50 lay within 100 to 500 nM.

Take `Fc1cc(C2CC23COC3)cc2nc(-c3nncn3-c3cnccc3C(F)(F)F)[nH]c12` (stereo not drawn) [Compound 413, 7-fluoro-5-(5-oxaspiro[2.3]hexan-2-yl)-2-[4-[4-(trifluoromethyl)-3-pyridyl]-1,2,4-triazol-3-yl]-1H-benzimidazole]: the IC50 was no more than 100 nM.

`Cc1nsc(-n2cnnc2-c2nc3cc(C(F)(F)F)ccc3[nH]2)c1Cl` [Compound 69]: the IC50 fell in the range of 100 to 500 nM.

With `CS(=O)(=O)CCc1cc(-n2cnnc2-c2nc3cc(C(F)(F)F)ccc3[nH]2)c(OC(F)(F)F)cn1` [Compound 254, 2-(4-(2-(2-(methylsulfonyl)ethyl)-5-(trifluoromethoxy)pyridin-4-yl)-4H-1,2,4-triazol-3-yl)-5-(trifluoromethyl)-1H-benzo[d]imidazole], the IC50 was no more than 100 nM.

`CC(C)(C#N)c1ccc2[nH]c(-c3nncn3-c3cccc(Cl)c3Cl)nc2c1` [Example 112]: the IC50 is no more than 100 nM.

With `CS(=O)(=O)Cc1c(-c2nncn2-c2cnccc2C(F)(F)F)[nH]c2ccc(C(F)(F)F)cc12` [Compound 385, 3-(methylsulfonylmethyl)-5-(trifluoromethyl)-2-[4-[4-(trifluoromethyl)-3-pyridyl]-1,2,4-triazol-3-yl]-1H-indole], the IC50 was no more than 100 nM.

`CCN(C)C(=O)c1ccc2[nH]c(-c3nncn3-c3ccc(F)c(F)c3Cl)nc2c1` [Compound 172, 2-(4-(2-chloro-3,4-difluorophenyl)-4H-1,2,4-triazol-3-yl)-N-ethyl-N-methyl-1H-benzo[d]imidazole-5-carboxamide]: the IC50 was greater than 1000 nM.

For `CCc1nnc(-c2nc3cc(C(F)(F)F)ccc3[nH]2)n1-c1cccc(Cl)c1Cl` [Compound 145, 2-(4-(2,3-dichlorophenyl)-5-ethyl-4H-1,2,4-triazol-3-yl)-5-(trifluoromethyl)-1H-benzo[d]imidazole], the IC50 is no more than 100 nM.

Take `FC(F)(F)c1ccc2[nH]c(-c3nncn3-c3cccc(Cl)c3Br)nc2c1` [Example 119]: the IC50 is no more than 100 nM.

Take `Oc1ccc(C(F)(F)F)c(-n2cnnc2-c2nc3cc(C(F)(F)F)ccc3[nH]2)c1` [Compound 240, 4-(trifluoromethyl)-3-(3-(5-(trifluoromethyl)-1H-benzo[d]imidazol-2-yl)-4H-1,2,4-triazol-4-yl)phenol]: the IC50 was no more than 100 nM.

As to `Cc1ccn(-c2cc(F)c3[nH]c(-c4nncn4-c4cnccc4C(F)(F)F)nc3c2)n1` [Compound 401, 7-fluoro-5-(3-methyl-1H-pyrazol-1-yl)-2-(4-(4-(trifluoromethyl)pyridin-3-yl)-4H-1,2,4-triazol-3-yl)-1H-benzo[d]imidazole], the IC50 is no more than 100 nM.

On to `CC(c1ccccc1)c1cc(F)c2[nH]c(-c3nncn3-c3cnccc3C(F)(F)F)nc2c1` (stereo not drawn) [Compound 431, 7-fluoro-5-(1-phenylethyl)-2-(4-(4-(trifluoromethyl)pyridin-3-yl)-4H-1,2,4-triazol-3-yl)-1H-benzo[d]imidazole], for which the IC50 was no more than 100 nM.

With `FC(F)(F)c1ccc2[nH]c(N3CCSCC3c3ccccc3)nc2c1` (stereo not drawn) [Compound 319, 3-phenyl-4-(5-(trifluoromethyl)-1H-benzo[d]imidazol-2-yl)thiomorpholine], the IC50 was greater than 1000 nM.

In the case of `FC(F)(F)c1cc2cc(-c3nncn3-c3cnccc3C(F)(F)F)[nH]c2cn1` [Compound 299, 5-(trifluoromethyl)-2-(4-(4-(trifluoromethyl)pyridin-3-yl)-4H-1,2,4-triazol-3-yl)-1H-pyrrolo[2,3-c]pyridine], the half-inhibitory concentration (IC50) is greater than 1000 nM.

For the compound `FC(F)(F)c1ccc2[nH]c(-c3nncn3-c3cnccc3C(F)(F)F)nc2c1` [Compound 225, 5-(Trifluoromethyl)-2-(4-(4-(trifluoromethyl)pyridin-3-yl)-4H-1,2,4-triazol-3-yl)-1H-benzo[d]imidazole], the IC50 is no more than 100 nM.

Consider `Fc1cc(C(F)(F)F)cc2nc(-c3nncnc3-c3cnccc3C(F)(F)F)[nH]c12` [Compound 336, 7-fluoro-5-(trifluoromethyl)-2-(5-(4-(trifluoromethyl)pyridin-3-yl)-1,2,4-triazin-6-yl)-1H-benzo[d]imidazole], for which the IC50 was no more than 100 nM.

Turning to `Fc1cc(C2CC2C(F)F)cc2nc(-c3nncn3-c3cnccc3C(F)(F)F)[nH]c12` (stereo not drawn) [Compound 339, 5-(2-(difluoromethyl)cyclopropyl)-7-fluoro-2-(4-(4-(trifluoromethyl)pyridin-3-yl)-4H-1,2,4-triazol-3-yl)-1H-benzo[d]imidazole], the half-maximal inhibitory concentration (IC50) was no more than 100 nM.

Regarding `O=S1(=O)Cc2ccc3[nH]c(-c4nncn4-c4cccc(F)c4Cl)nc3c2C1` [Compound 198, 2-(4-(2-chloro-3-fluorophenyl)-4H-1,2,4-triazol-3-yl)-6,8-dihydro-3H-thieno[3',4':3,4]benzo[1,2-d]imidazole 7,7-dioxide], the IC50 is greater than 1000 nM.

In the case of `Cc1ccc2[nH]c(-c3ccc(C(N)=O)n3C3CCCC3)nc2c1` [Compound 24, 1-cyclopentyl-5-(5-methyl-1H-1,3-benzodiazol-2-yl)pyrrole-2-carboxamide], the IC50 was greater than 1000 nM.

Regarding `NC(=O)Cc1nnc(-c2nc3cc(C(F)(F)F)ccc3[nH]2)n1-c1cccc(Cl)c1Cl` [Example 122, 2-[4-(2,3-Dichlorophenyl)-5-[5-(trifluoromethyl)-1H-benzimidazol-2-yl]-1,2,4-triazol-3-yl]acetamide], the IC50 was no more than 100 nM.

For `FC(F)(F)c1ccc2[nH]c(-c3nccnc3-c3cccc(Cl)c3Cl)nc2c1` [Compound 304, 2-(3-(2,3-dichlorophenyl)pyrazin-2-yl)-5-(trifluoromethyl)-1H-benzo[d]imidazole], the 50% inhibitory concentration (IC50) fell in the range of 500 to 1000 nM.

Take `FC(F)(F)Oc1cnc(CC2COC2)cc1-n1cnnc1-c1nc2cc(C(F)(F)F)ccc2[nH]1` [Compound 262, 2-(4-(2-(oxetan-3-ylmethyl)-5-(trifluoromethoxy)pyridin-4-yl)-4H-1,2,4-triazol-3-yl)-5-(trifluoromethyl)-1H-benzo[d]imidazole]: the IC50 was no more than 100 nM.

As for `Cc1ccc2[nH]c(-c3ncnn3C3CCCC3)nc2c1` [Compound 10, 2-(2-cyclopentyl-1,2,4-triazol-3-yl)-5-methyl-1H-benzimidazole], the IC50 is greater than 1000 nM.

Regarding `Cc1ccc2[nH]c(-c3nncn3-c3cccc(Cl)c3Cl)nc2c1` [Example 5, 2-(4-(2,3-dichlorophenyl)-4H-1,2,4-triazol-3-yl)-5-methyl-1H-benzo[d]imidazole], the concentration for half-maximal inhibition (IC50) is no more than 100 nM.

Regarding `Cn1cc(-c2cccc(Cl)c2Cl)c(-c2nc3cc(Cl)c(Cl)cc3[nH]2)cc1=O` [Compound 188, 4-(5,6-dichloro-1H-benzo[d]imidazol-2-yl)-5-(2,3-dichlorophenyl)-1-methylpyridin-2(1H)-one], the IC50 fell in the range of 100 to 500 nM.

Turning to `Cc1ccc2[nH]c(-c3cc(C#N)cn3C3CCCC3)nc2c1` [Compound 18, 1-cyclopentyl-5-(5-methyl-1H-benzo[d]imidazol-2-yl)-1H-pyrrole-3-carbonitrile], the 50% inhibitory concentration (IC50) lay within 100 to 500 nM.

As to `Fc1ccc(-n2cnnc2-c2nc3cc(C(F)(F)F)ccc3[nH]2)c(Cl)c1Cl` [Example 85], the concentration for half-maximal inhibition (IC50) was no more than 100 nM.

As to `Cn1cc(-c2cccc(F)c2Cl)c(-c2nc3cc(CC(N)=O)ccc3[nH]2)cc1=O` [Compound 179, 2-(2-(5-(2-chloro-3-fluorophenyl)-1-methyl-2-oxo-1,2-dihydropyridin-4-yl)-1H-benzo[d]imidazol-5-yl)acetamide], the IC50 is 100 to 500 nM.

As a reminder, the IC50 is the concentration that gives 50% inhibition.
